According to patent US20240247236A1, “METHOD FOR PRODUCING PLURIPOTENT STEM CELLS” (KANEKA CORPORATION, priority 2021, published 2024):

System: human iPS cell line 201B7
Test: Quantitative real-time PCR analysis of germ layer marker genes in suspension culture of human iPS cell line 201B7
Assay type: cell-based
Details: WNT inhibitor = IWR-1-endo 20 μM, PKCβ inhibitor = GF109203X 3 μM
[1] = day 10 of suspension culture, compared with adherent culture (Reference Example 1)

Method: Human iPS cell line 201B7 after adherent culture in the same manner as in Reference Example 1 was treated with Accutase for 5 minutes to be detached from the culture surface, and the cells were dispersed into a single state by pipetting. The cells were suspended in StemFit (registered trademark) AK02N medium containing Y-27632 at a final concentration of 10 μM, and some of the cells were stained with trypan blue, followed by measurement of the viable cell count. A cell suspension was prepared using StemFit (registered trademark) AK02N medium containing Y-27632 at a final concentration of 10 μM such that the cell suspension included 2×10^5 cells per 1 mL. The cell suspension in an amount of 1 mL was seeded per well in a 12-well plate for suspension culture (Sumitomo Bakelite Co., Ltd.). The plate seeded with cells was rotated on a rotary shaker at a speed of 98 rpm along a horizontal plane in a circle with a rotation width (diameter) of 25 mm, during which the suspension culture was performed at 37° C. in a 5% CO2 environment.
The day when the cells were seeded was defined as day 0 of culture, passage was performed on day 5 of culture, and suspension culture was performed until day 10 of culture. Medium exchange was carried out every day. As for the method of medium exchange, the entire amount of the medium containing cell masses was collected into a centrifuge tube, and the tube was allowed to stand for about 5 minutes, thereby settling the cell masses. Then, the culture supernatant was removed, and the residue was gently resuspended in StemFit (registered trademark) AK02N medium, and returned to the original well.
Upon medium exchange, Y-27632 was added to the medium at a final concentration of 5 μM on days 1 and 6 of culture, and Y-27632 was added to the medium at a final concentration of 2 μM on days 2 and 7 of culture. On day 5 of culture, the cell masses and culture supernatant were collected from the wells into a centrifuge tube and allowed to stand for about 5 minutes, thereby settling the cell masses. Then, the culture supernatant was removed.
After adding 1 mL of Accutase to the cell masses, the cell masses were treated at 37° C. for 10 minutes and then dispersed into a single-cell state by pipetting. The cells were suspended in StemFit (registered trademark) AK02N medium containing Y-27632 at a final concentration of 10 μM, and some of the cells were stained with trypan blue, followed by measurement of the viable cell count. A cell suspension was prepared using StemFit (registered trademark) AK02N medium containing Y-27632 at a final concentration of 10 μM such that the cell suspension included 2×10^5 cells per 1 mL. Then, cell seeding was performed in the same manner as in the case of day 0 to continue the suspension culture.
Suspension culture was performed in the same manner as in Reference Example 2, except that IWR-1-endo was added as a WNT inhibitor at a final concentration of 20 μM to the seeding medium and the medium exchanged for new medium for suspension culture.

O=C(Nc1cccc2cccnc12)c1ccc(N2C(=O)[C@@H]3[C@H](C2=O)[C@@H]2C=C[C@H]3C2)cc1 [IWR-1-endo, 4-(1,3,3a,4,7,7a-hexahydro-1,3-dioxo-4,7-methano-2H-isoindole-2-yl)-N-8-quinolinyl-benzamide]
expression level of PAX6 (ectodermal marker gene) [1]: greater than that in Reference Example 1 | expression level of SOX17 (endodermal marker gene) [1]: suppressed to the expression levels acceptable for the pluripotent stem cells as with Reference Example 1 | expression level of TBXT (mesodermal marker gene) [1]: suppressed to the expression levels acceptable for the pluripotent stem cells as with Reference Example 1 | spontaneous differentiation into ectoderm (suspension culture): weak suppressive effect | spontaneous differentiation into mesoderm and endoderm (suspension culture): can effectively suppress
